# Source: EP0201094A2, “Thieno[2,3-d]imidazole derivatives and process for their preparation” (Hafslund Nycomed Pharma Aktiengesellschaft, priority 1985, dated 1986)
# System: Magensekretion
# Test: Gastric secretion in pylorus-ligated conscious female rats after oral dosing
# Type: in vivo, Ratten (Stamm: Charles River CD)
# Settings: for Säure gesamt / Säurekonzentration / Menge: pylorus ligation 60 min after dosing; for Säure gesamt / Säurekonzentration: measured 4 h after ligation; for Menge: stomach content measured 4 h after ligation; for Hemmung der Magensekretion: result in words, increasing oral doses of 125, 250 and 500 µmol/kg
# Description: Die Substanzen wurden in 20 %-igem Dimethylsulfoxid gelöst und wachen weiblichen Ratten - (Stamm: Charles River CD) in ansteigenden Dosen von 125, 250 und 500 µmol/kg mit dem einheitlichen Dosierungsvolumen von 20 ml/kg oral appliziert. 60 Minuten später wurden die Tiere einer Pylorusligatur unterzogen. 4 Stunden nach Setzen der Pylorusligatur wurde die Säurekonzentration und der Gesamtsäuregehalt im Magenvolumen der Tiere bestimmt. Die Kontrollgruppe erhielt 20 ml/kg Dimethylsulfoxid bzw. 20 ml/kg destilliertes Wasser.
compound,measurement,setting,value
COc1ccnc(C[S+]([O-])c2nc3ccsc3[nH]2)c1 (centres unmarked) [Verbindung B],Säure gesamt,125 µmol/kg oral,0.37±0.07 mÄq
same,Säurekonzentration,125 µmol/kg oral,0.08±0.007 mÄq/ml
same,Menge,125 µmol/kg oral,4.5 ± 0.6 mL
same,Säure gesamt,250 µmol/kg oral,0.27±0.05 mÄq
same,Säurekonzentration,250 µmol/kg oral,0.05±0.004 mÄq/ml
same,Menge,250 µmol/kg oral,5.0 ± 0.6 mL
same,Säure gesamt,500 µmol/kg oral,0.14±0.02 mÄq
same,Säurekonzentration,500 µmol/kg oral,0.03±0.004 mÄq/ml
same,Menge,500 µmol/kg oral,4.5 ± 0.4 mL
same,Hemmung der Magensekretion,,"signifikante, dosisabhängige Hemmung der Magensekretion"
"COc1c(C)cnc(C[S+]([O-])c2nc3cc(C(C)=O)sc3[nH]2)c1C (centres unmarked) [Verbindung A, 5-Acetyl-2-((4-methoxy-3,5-dimethyl-2-pyridyl)-methylsulfinyl)-3H-thieno(2,3-d)imidazol]",Säure gesamt,125 µmol/kg oral,0.37±0.06 mÄq
same,Säurekonzentration,125 µmol/kg oral,0.08±0.008 mÄq/ml
same,Menge,125 µmol/kg oral,4.7 ± 0.4 mL
same,Säure gesamt,250 µmol/kg oral,0.16±0.03 mÄq
same,Säurekonzentration,250 µmol/kg oral,0.04±0.006 mÄq/ml
same,Menge,250 µmol/kg oral,3.4 ± 0.3 mL
same,Säure gesamt,500 µmol/kg oral,0.13±0.03 mÄq
same,Säurekonzentration,500 µmol/kg oral,0.04±0.005 mÄq/ml
same,Menge,500 µmol/kg oral,3.1 ± 0.4 mL
same,Hemmung der Magensekretion,,"signifikante, dosisabhängige Hemmung der Magensekretion"
